# From US20240415878A1, “Compositions and Methods for Modulating Mitochondrial Function” (Board of Regents, The University of Texas System, priority 2021, published 2024)
# Assays:
# [1] = target: T1, human MRS2 (Homo sapiens, UniProt Q9HD23); experiment: Dynamic light scattering of purified full-length MRS2 assembly; assay type: binding; conditions: 0.5 mM
# T1 construct: 6xHis (N, cleaved yes); made in house; host or cells: BL21 (DE3) codon+ Escherichia coli, pET-28a
# T1 sequence (Q9HD23 58-443): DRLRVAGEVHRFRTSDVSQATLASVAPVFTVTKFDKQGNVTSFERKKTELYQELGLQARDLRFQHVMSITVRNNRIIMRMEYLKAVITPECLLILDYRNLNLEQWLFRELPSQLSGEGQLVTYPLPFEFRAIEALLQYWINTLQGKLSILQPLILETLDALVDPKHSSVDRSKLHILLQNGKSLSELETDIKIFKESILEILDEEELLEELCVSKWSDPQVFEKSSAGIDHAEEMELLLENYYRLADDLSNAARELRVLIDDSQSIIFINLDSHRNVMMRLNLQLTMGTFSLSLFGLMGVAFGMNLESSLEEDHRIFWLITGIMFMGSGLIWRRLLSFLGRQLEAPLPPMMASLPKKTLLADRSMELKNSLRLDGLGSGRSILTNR
# Description: Next, CPACC was assessed to determine if it directly affects the assembly of purified human MRS2 using dynamic light scattering (DLS). DLS has been used to determine whether the complex stability of proteins/channels is altered by molecular chaperones or drugs (Kitamura et al., 2006). Because of the high sensitivity of DLS to changes in complex sizes, full-length Mrs2 assembly was evaluated in the presence Ca^2+ (5 mM), Mg^2+ (5 mM), Co^2+ (5 mM) or the Mrs2 blocker CPACC (0.5 mM) (FIG. 10K, FIG. 10L, FIG. 10M, FIG. 10N, FIG. 10O). […] A concentration-response assessment confirmed robust decreases in hydrodynamic radii at all CPACC concentrations tested and as low as 10 μM (FIG. 10O).
# MRS2 cloning, expression, and purification. The full length human MRS2 (NCBI accession NP_065713.1), identified as MRS258-443 (i.e. residues 58-443) and excluding the mitochondrial targeting sequence, was cloned into pET-28a using Ndel and Xhol restriction sites. […]
# Dynamic light scattering (DIS). […] The sample was equilibrated for 5 min at 20° C. before 10 autocorrelation function acquisitions of 5 s each were recorded and averaged. […] The dependence of hydrodynamic size on CPACC concentration was determined using ≈0.5 mg/mL protein supplemented with 0.01 mM, 0.05 mM, 0.1 mM, 0.5 mM or 0.75 mM CPACC, using a similar experimental setup as described above and cumulants analysis.
# [2] = test system: WT hepatocytes; experiment: Mitochondrial oxygen consumption rate and extracellular acidification rate (Seahorse); assay type: cell-based, murine
# Description: CPACC treatment enhances adipose browning and lowers whole body weight. Given the potent mMg^2+ uptake inhibiting properties and low toxicity of CPACC, we hypothesized that CPACC could mimic Mrs2^−/− cellular phenotype. WT hepatocytes isolated from over 12 months old mice were treated with 50 μM CPACC for 48 hours. Control and CPACC treated hepatocytes were stained with BODIPY and TMRE for intracellular tracing using confocal imaging. […] Next it was determined if CPACC treatment affects the mitochondrial oxygen consumption rate. Freshly isolated WT hepatocytes were treated with 5-25 μM concentrations of CPACC for 16 hours before measurement of oxygen consumption rate. […] Since it was observed an enhancement of basal OCR in CPACC treated hepatocytes, the extracellular acidification rate was measured in control and CPACC treated hepatocytes and found it to be higher in the CPACC condition indicating higher glycolytic activity (FIG. 11G). […]
# Mitochondrial oxygen consumption rate. […] Oxygen consumption rate (OCR) was measured at 37° C. in an XF96 extracellular flux analyzer (Seahorse Bioscience, Agilent) calibrated using Seahorse XF Calibrant solution (Seahorse Bioscience, Agilent) in a CO2-free incubator overnight. […] Data was collected using Agilent Seahorse Wave 2.6.1 Desktop software and analyzed using GraphPad Prism version 8 (Irrinki et al., 2011; Tomar et al., 2016).
smiles,measurement,setting,value
"[NH2][Co]([NH2])([NH2])([NH2])([NH2])[Cl] [CPACC, chloropentaammine cobalt (III) chloride]",full-length MRS2 complex sizes (DLS),[1],potently decreased
same,maximal OCR,"[2]; 5-25 μM, 16 hours",without a significant effect
same,extracellular acidification rate,[2]; treated versus control hepatocytes,higher
